# Assay results reported in patent US12264156B2, “Compounds and pharmaceutical compositions thereof for the treatment of diseases” (GALAPAGOS NV, priority 2018, dated 2025).
# Tested on: mouse CAIA model
# Assay: Murine collagen-antibody induced arthritis model (CAIA)
# Assay type: in vivo
# Details: 60 mg/kg p.o. b.i.d.
# Procedure: ArthritoMabrm antibody cocktail for inducing arthritis and lipopolysaccharide (LPS) from Escherichia Coli serotype O55:B5 were purchased from MD Biosciences (OakdalMNnn., USA, Cat #CIA-MAB-50); PBS 1× (GIBCO, Cat #140190-086) was obtained from ThermoFisher Scientific, and Enbrel® (etanercept) was purchased from Chondrex (L'Isle d'Abeau, France, Cat #3771910).
# Five to seven week old BALBc female mice were obtained from Janvier Labs (Le Genest-Saint-Isle, France). Mice were kept on a 12 h light/dark cycle. Temperature was maintained at 22° C., food and water were provided ad libitum.
# The therapeutic effects of the compounds of the invention were tested in the mouse CAIA model (MD Biosciences 2008; Nandakumar et al. 2003). At day 1 (D1), mice were randomly divided into equal groups containing 10 mice. […] Bodyweight and clinical score of each mouse was assessed every day except the weekend until the end of the study. […] For histology readouts, right and left hind paws were individually collected in vials (25 mL minimum) filled with 4% buffered formaldehyde for a minimum of 24 h to a maximum of 4 days at RT.
# Arthritis was scored according to the method of Khachigian 2006; Lin et al 2007 and Nishida et al. 2004 (Khachigian 2006; Lin et al. 2007; Nishida et al. 2004). […]
structure (smiles),measurement,value
"COc1cc(-c2cnc3cc(OCCN4CCOCC4)ccn23)cc2c1C(=O)N(CC(F)(F)F)CC2 [Cpd 88, 8-methoxy-6-[7-(2-morpholinoethoxy)imidazo [1,2-a]pyridin-3-yl]-2-(2,2,2-trifluoroethyl)-3,4-dihydroisoquinolin-1-one]",Area Under the Curve (AUC) of clinical score vs. vehicle group,statistically significant reduction of Area Under the Curve (AUC) of clinical score
